The record followed here is patent US11207308B2, “Pharmaceutical compositions for combination therapy” (PRILENIA NEUROTHERAPEUTICS LTD., priority 2012, dated 2021).

For assay [1], the system named is striatal dopamine. Kind of assay: Striatal dopamine (DA) tissue level (HPLC/EC), dose-response in naive rats. Format: in vivo, rat. To be noted: for DA striatum, dose-response in naive rats: mean ± SEM, percentage of vehicle control group mean. The method, then:
(§1) Rats weighed 160-180 g at the time of arrival.
(§2) The treatment groups consisted of Vehicle (saline; NaCl 0.9% v/w) and ACR16 tested at three doses (11; 33 and 100 μmol/kg).
(§3) KR104: Animals were allocated into five different treatment groups, n=4.
(§4) All compounds were injected s.c. four minutes before start of locomotor activity recording at a volume of 5 ml/kg.
(§5) A digital sonifier (Branson Digital Sonifier 250-D) was used to homogenise tissue from the striatum and limbic region. […] All samples were centrifuged at 10.000 rpm for 10 minutes at +4° C. Cortex tissue was filtered in Munktell filter paper 5.5 cm quality 1 F. Tissue eluates were analysed with respect to tissue concentrations (ng/g tissue) of the monoamine transmitter substances (Norepinephrine (NA), dopamine (DA), 5-hydroxytryptamine (5-HT)) as well as their amine metabolites (normetanephrine (NM), 3-methoxytyramine (3-MT)) and acid metabolites ([…] (DOPAC), 5-hydrocyindoleacetic acid (5-HTAA), homovanillic acid (HVA)) by HPLC separations and electrochemical detection (HPLC/EC). Stock standards (DA, NA, 5-HT, 3-MT, DOPAC, HVA, HIAA, 500 μg/ml) and internal standard (AMDA 500 μg/ml) are prepared once every three months. 5-HT and 5HIAA are dissolved in milliQ water. DA, NA, DOPAC, NM, 3-MT and HVA are dissolved in 0.01 M HCl. 5-HT, 5-HIAA, NM and HVA are kept in fridge; DA, DOPAC, NA and 3-MT are kept in freezer.
(§6) Detection potentials relative to Ag/AgCl reference are 0.45 and 0.60V. […] Detection potentials relative to Ag/AgCl reference are 0.45 and 0.65V.

The subject of assay [2] is Arc mRNA. Kind of assay: Arc gene expression (Arc mRNA, real-time PCR) in striatum and frontal cortex, dose-response studies. The format is in vivo, rat. The method, then: as §1, §4
Reference genes are HPRT and cyclophilin.
Correct PCR products are confirmed by agarose gel electroforesis (2%) PCR products are purified with PCR purification kit from Qiagen (Valencia, Calif., USA). All genes are sequenced at MWG, Germany.
For the data shown in FIG. 6, the reverse transcription and PCR were performed as follows:
Reversed transcription is performed by using a ThermoScript kit (Invitrogen).
cDNA of Arc and two reference genes, hypoxanthine-guanine phosphoribosyltransferase (HPRT) and cyclophilin A, was amplified by real-time PCR in either a triplex reaction (Tetrabenazine studies) or three singleplex reactions (studies with Pridopidine and haloperidol).
(In qPCR the cycle at which signal appears reflects the starting amount.)

Assay [3] has as its system striatal DOPAC. Kind of assay: Striatal DOPAC tissue level (HPLC/EC), dose-response in naive rats. The format is in vivo, rat. To be noted: mean ± SEM, percentage of vehicle control group mean. The method, then: as §1, §2, §3, §4, §5, §6
Assay [4] concerns Male Sprague-Dawley rats. The assay can be described thus: Spontaneous locomotor activity, dose-response in drug-naive rats. Format: in vivo, rat. To be noted: for Spontaneous locomotor activity, % of the vehicle control group mean: full hour of recording; for Spontaneous locomotor activity, period 15-60 minutes post dosing (in words) / Spontaneous locomotor activity, initial 15 min (in words): vs vehicle control; for Effect on spontaneous locomotor activity (in words): all doses tested, s.c., 60 min recording; for Spontaneous locomotor activity, initial 15 min (in words): initial 15 min of recording. The protocol: as §1, §2, §3, §4
During measurements of behavioural activity, a rat is put in a transparent acrylic cage with matted black floor (W×L×H, 41×41×30 cm) which in turn is placed in the activity monitor. […] Two rows are placed along the front and the side of the floor of the cage, at a 90 degree angle, and the third row is placed 10 cm above the floor to measure vertical activity. Photobeam sensors are spaced 2.5 cm apart.

Assay [5] relates to Male Sprague-Dawley rats. To be noted: for Locomotor activity, % of Tetrabenazine control mean: full hour of recording.
Description: No brain tissue was collected from this experiment. […] Each activity monitor consists of a quadratic metal frame equipped with photobeam sensors. […] Each activity monitor is equipped with three rows of infrared photobeam sensors, each row consisting of 16 sensors. […] Photobeam sensors are spaced 2.5 cm apart. Each activity monitor is fitted in an identical sound and light attenuating box (W×L×H—55×55×45) containing a weak house light and a fan. The computer software is written using object oriented programming (LabVIEW™, National instruments, Austin, Tex., USA). Behavioural data from each activity monitor, representing the position (horizontal center of gravity and vertical activity) of the animal at each time, are recorded at a sampling frequency of 25 Hz and collected using a custom written LABView™ application. The data from each recording session are stored and analyzed with respect to distance travelled. Each behavioural recording session lasts 60 min, starting approximately 4 min after the injection of test compound. The results are presented as counts/60 minutes, counts/45 minutes or counts/15 minutes, in arbitrary length units. Statistical comparisons are carried out using Student's t-test against the control group.
In assay [6] the test system is striatal DOPAC. Kind of assay: Striatal DOPAC tissue level (HPLC/EC), interaction with Tetrabenazine. To be noted: percentage of Tetrabenazine control group mean.
Assay [7] has as its system Arc mRNA. The assay can be described thus: Arc gene expression (Arc mRNA, real-time PCR) in striatum and frontal cortex, interaction with Tetrabenazine.
The test system of assay [8] is striatal dopamine. Kind of assay: Striatal dopamine (DA) tissue level (HPLC/EC), interaction with Tetrabenazine. The conditions noted are these: percentage of Tetrabenazine control group mean.
[9] abbreviates: 0.64 mg/kg s.c., vs vehicle control.
The mark [10] stands for this setting: 33 μmol/kg s.c. together with Tetrabenazine 0.64 mg/kg.
Setting [11] is: 100 μmol/kg s.c. together with Tetrabenazine 0.64 mg/kg.
The mark [12] stands for this setting: 33 μmol/kg s.c. coadministered with Tetrabenazine 0.64 mg/kg.
Setting [13] is: 100 μmol/kg s.c. coadministered with Tetrabenazine 0.64 mg/kg.

“And” between values parts separate entries of the source, which are not always exact repeats. Identical values can stand only once. “Also recorded” adds a separate entry of the source. Like-named read-outs stand apart in the source and are kept apart here.

Turning to `COc1cc2c(cc1OC)C1CC(=O)C(CC(C)C)CN1CC2` (stereo not drawn) [Tetrabenazine, (SS,RR)-3-Isobutyl-9,10-dimethoxy-1,3,4,6,7,11b-hexahydro-pyrido[2,1-a]isoquinolin-2-one], the “DA striatum, dose-response in naive rats” value with striatal dopamine [1] (0.37 mg/kg s.c.) was 48 ± 2 %. In addition, the “DA striatum, dose-response in naive rats” value in the assay with striatal dopamine [1] (0.64 mg/kg s.c.) is 33 ± 3 %. Further, in the assay with striatal dopamine [1] (0.64 mg/kg, the dose used in the interaction experiments, throughout the studies performed), the “Striatal dopamine, % of vehicle control group mean” value is “approximately 50%”. In the assay on striatal dopamine [1] (1.1 mg/kg s.c.), the “DA striatum, dose-response in naive rats” value is reported as 20 ± 2 %. In addition, in the assay on Arc mRNA [2] (0.64 mg/kg s.c., trend, p=0.14), the “Arc mRNA in the frontal cortex, % of control group mean” value turned out to be 83%. For the same compound, in the assay on Arc mRNA [2] (setting [9]), the “Frontal cortex Arc mRNA, Tetrabenazine alone in the interaction experiments (in words)” value is recorded as “significant decrease; also recorded: tended to decrease” and the “Striatal Arc mRNA, Tetrabenazine alone in the interaction experiments (in words)” value is given as “no significant effect”. For the same compound, in the assay on Arc mRNA [2] (1.1 mg/kg s.c.), the “Arc mRNA in the frontal cortex, % of the vehicle control group mean” value was determined as 66% and the “Arc mRNA in the striatum, % of the vehicle control group mean” value worked out at 147%. For the same compound, the “DOPAC striatum, dose-response in naive rats” value (“DOPAC striatum, dose-response” for short) with striatal DOPAC [3] (0.37 mg/kg s.c.) is listed as 144 ± 8 %. The “DOPAC striatum, dose-response” value in the assay with striatal DOPAC [3] (0.64 mg/kg s.c.) is 208 ± 14 %. For the same compound, the “DOPAC striatum, dose-response” value in the assay with striatal DOPAC [3] (1.1 mg/kg s.c.) came out at 263 ± 19 %. Also, in the assay on Male Sprague-Dawley rats [4] (0.64 mg/kg s.c., full hour (P<0.001), 0-15 min and 15-60 min (P<0.01), interaction experiment with Pridopidine), the “Locomotor activity, Tetrabenazine control group vs. vehicle treated controls (in words)” value is reported as “significant decrease”. The “Spontaneous locomotor activity, % of the vehicle control group mean” value in the assay with Male Sprague-Dawley rats [4] (1.1 mg/kg s.c.) is given as 40%. In addition, in the assay on Male Sprague-Dawley rats [4], the “Spontaneous locomotor activity, period 15-60 minutes post dosing (in words)” value was “significant effects (P<0.05) were observed at 0.64 and 1.1 mg/kg”; the “Effect on spontaneous locomotor activity (in words)” value is recorded as “dose dependently inhibited spontaneous locomotor activity”; the “Spontaneous locomotor activity, initial 15 min (in words)” value was “significant reductions (P<0.05) were seen both for the 1.1 and 0.37 mg/kg”.

Take `CCCN1CCC(c2cccc(S(C)(=O)=O)c2)CC1` [Pridopidine, 4-(3-Methanesulfonyl-phenyl)-1-propyl-piperidine]: the “DA striatum, dose-response in naive rats” value in the assay with striatal dopamine [1] (11 μmol/kg s.c.) is on record as 104 ± 3%; with striatal dopamine [1] (33 μmol/kg s.c.), 101 ± 3%; in the assay on striatal dopamine [1] (100 μmol/kg s.c.), 73 ± 4 %. Moreover, the “Arc mRNA in the frontal cortex, % of the vehicle control group mean” value is listed as 149% in the assay with Arc mRNA [2] (33 μmol/kg s.c.) and 222% with Arc mRNA [2] (100 μmol/kg s.c.). For the same compound, the “Arc mRNA in the striatum, % of the control group mean” value in the assay with Arc mRNA [2] (33 μmol/kg s.c.) came out at 168%; in the assay with Arc mRNA [2] (100 μmol/kg s.c.), 253%. Further, the figures for the “Locomotor activity, % of Tetrabenazine control mean” value in the assay with Male Sprague-Dawley rats [5] (33 μmol/kg s.c. combined with Tetrabenazine 0.64 mg/kg) and with Male Sprague-Dawley rats [5] (100 μmol/kg s.c. combined with Tetrabenazine 0.64 mg/kg) were 135% and 137%, respectively. The “Locomotor activity in Tetrabenazine treated rats, 15-60 min (in words)” value in the assay on Male Sprague-Dawley rats [5] (15-60 min period, combined with Tetrabenazine 0.64 mg/kg, vs Tetrabenazine control) is on record as “this reversing effect reached significance for the Pridopidine 100 μmol/kg dose group”. Also, the “Effect on Tetrabenazine induced locomotor activity reduction (in words)” value in the assay on Male Sprague-Dawley rats [5] (combined with Tetrabenazine 0.64 mg/kg s.c.) is “reversed the behavioural inhibition induced by Tetrabenazine”. Besides, the “Locomotor activity in Tetrabenazine treated rats, 0-15 min (in words)” value in the assay on Male Sprague-Dawley rats [5] (first 15 min, combined with Tetrabenazine 0.64 mg/kg, vs Tetrabenazine control) is listed as “this reversing effect reached significance for the Pridopidine 100 μmol/kg dose group”. Also, the “DOPAC striatum, interaction with Tetrabenazine” value in the assay with striatal DOPAC [6] (setting [10]) was 123 ± 8 ^ %; with striatal DOPAC [6] (setting [11]) it was 155% and 155 ± 4 %. The figures for the “DOPAC striatum, dose-response” value in the assay with striatal DOPAC [3] (11 μmol/kg s.c.), in the assay on striatal DOPAC [3] (33 μmol/kg s.c.) and in the assay on striatal DOPAC [3] (100 μmol/kg s.c.) were 117 ± 5 %, 178 ± 7 % and 236 ± 17 %, respectively. Besides, the “Spontaneous locomotor activity, % of the vehicle control group mean” value in the assay with Male Sprague-Dawley rats [4] (33 μmol/kg s.c.) is given as 138%. Also, the “Spontaneous locomotor activity, period 15-60 minutes post dosing (in words)” value with Male Sprague-Dawley rats [4] is listed as “no significant effects were observed”. Also, the “Effect on spontaneous locomotor activity (in words)” value in the assay on Male Sprague-Dawley rats [4] was “no inhibitory effect on spontaneous locomotor activity”. In the assay on Male Sprague-Dawley rats [4], the “Spontaneous locomotor activity, initial 15 min (in words)” value is recorded as “a significant increase (P<0.05) was seen for the 11 μmol/kg Pridopidine dose group”. For the same compound, the “Frontal cortex Arc mRNA, % of the Tetrabenazine control group mean” value worked out at 125% in the assay on Arc mRNA [7] (setting [12]) and 193% with Arc mRNA [7] (setting [13]). Further, the “Striatal Arc, % of the Tetrabenazine control group mean” value with Arc mRNA [7] (setting [12]) is 144%; with Arc mRNA [7] (setting [13]), 207%. Also, the entries for the “DA striatum, interaction with Tetrabenazine” value in the assay on striatal dopamine [8] (setting [10]) and in the assay with striatal dopamine [8] (setting [11]) were 91 ± 11% and 98 ± 8%, respectively.
